Where two headings read alike, the source gives them in different places.
Tests used:
S. cerevisiae = assay: Yeast replicative lifespan; type: cell-based; details: for Average lifespan, growth on resveratrol: wild type untreated 21.0
[1] = system: acetylated K382 of p53 in U2OS osteosarcoma cells; assay: p53 Ac-K382 Western blot after UV radiation; type: cell-based, human
Description: FdL (200 μM) is added to growth media and cells incubated for 1-3 hours to allow FdL to enter the cells and the lysine-deacetylated product (deAc-FdL) to accumulate intracellularly. Cells are lysed with detergent in the presence of 1 μM TSA, 1 mM nicotinamide. […] Cells were grown adherently in DMEM/10% FCS and treated for 1 hour with 200 μM FdL, 1 μM TSA and either vehicle (0.5% final DMSO, Control) or 500 μM of the indicated compound. Intracellular accumulation of deAc-FdL was then determined as described briefly in a. […] Lysates were prepared and analyzed as above.

[2] = system: Experimental autoimmune encephalomyelitis (EAE) in SJL/J mice; details: for Mean total EAE score: 30 days from day 11, vehicle 72.38; for Mean EAE Score - Last 10 Days: vehicle 23.00
D. melanogaster = D. melanogaster lifespan; type: in vivo
Description: Females (a) and males (b) with loss-of-function genotype dSir2^4.5/dSir2^5.26. Females (c) and males (d) with strong hypomorphic genotype dSir2^17/dSir2^KG00871.
Survival assays were conducted independently with adult D. melanogaster in two laboratories. In the first laboratory, all trials used an yw marked wild-type strain. Larvae were reared on standard cornmeal-sugar-yeast (CSY) agar diet (cornmeal 5%, sucrose 10.5%, SAF yeast 2%, and agar 0.7%). Newly eclosed adults were placed in 1 L demography cages with approximately 75 males and 75 females. Three to four replicate 1 L demography cages were used for each treatment group in each trial. Every two days, dead flies were removed and scored, and food vials were replenished. Food vials contained cornmeal-sugar-yeast diet with SAF yeast as either 2% or 3% by weight. Test compounds in 100 μl of EtOH (or blank EtOH in controls) were mixed into melted aliquots of the adult food media to make a final concentration of 0, 10 or 100 μM. Fresh stock solutions and adult media were prepared weekly. In the second laboratory, lifespan trials were conducted with the wild type strain Canton-S, dSir2^4.5 and dSir2^5.26 (S. Smolik, University of Oregon), dSir2^17 (S. Astrom, Stockholm University, Sweden), and dSir2^KG00871 (Drosophila Stock Center, Bloomington, Ind.). Larvae for all tests were reared on standard cornmeal-sugar-yeast diet. Newly eclosed adults were incubated in plastic shell vials containing 5 ml of 15% sugar-yeast diet (15% SY) or 5% sugar-yeast (5% SY) diet (15% SY: 15% yeast, 15% sucrose, 2% agar; 5% SY: 5% yeast, 5% sucrose, 2% agar as per Ref. ^20). In all trials, ˜20 males with ˜20 females were placed into each of 10 vials/treatment group. Every two days, flies were passed into new vials and dead flies were counted. […] Final compound concentrations were 0, 10, 100 or 200 μM. Fresh stock solution and adult media was prepared weekly.

[3] = system: thoracic spinal cord of EAE SJL/J mice; assay: EAE spinal cord white matter damage; type: in vivo, mouse
From the text: At day 40 post-immunization, mice from each group are sacrificed with an overdose of ketamine/xylazine. Spinal cords are dissected, fixed in 10% buffered formalin, and embedded in paraffin. Five micron thick sections are stained with Hematoxylin and Eosin (H&E) and Luxol Fast Blue (LFB) to assess myelin loss. Bielshowesky's silver impregnation is used to evaluate axonal integrity. To asses the amount of axonal loss, paraffin sections are exposed to monoclonal antibodies against mouse non-phosphorylated neurofilament H (Clone SMI-32, Stemberger Monoclonals, Baltimore, USA) and monoclonal antibodies against APP (Clone 22C11, Chemicon). SMI-32 is detected with a Cy3-labeled antibody and visualized by fluorescence microscopy. Anti-APP antibodies are detected by incubation with ColonoPAP, and APP-positive axons are visualized with 3,3′-diaminobenzidine (DAB).
The percentage of the spinal cord showing damage was determined in the cervical, thoracic and lumbar cord. At each level, regions in the 1) dorsal columns and 2) the lateral and ventral white matter tracts containing damaged fibers was circumscribed on photomontages (final magnification ×100) of the entire spinal cord. Damaged areas in each of the two regions were measured using a SummaSketch III (Summagraphics, Seymour, Conn.) digitizing tablet and BIOQUANT Classic 95 software (R&M Biometrics, Nashville, Tenn.). Measurements were also be made of the total area (damaged and nondamaged) of the 1) dorsal columns and 2) the lateral and ventral columns. For each section (one section per animal), the cumulative percent lesion areas were calculated for each region (dorsal column, lateral and ventral columns).

rDNA locus (RDN1) = assay: Ribosomal DNA recombination and silencing assays; type: cell-based, S. cerevisiae
Description: Pre-treated cells (RDN1::URA3) were harvested and spotted as 10-fold serial dilutions on either SC or SC with 5-fluororotic acid (5-FOA).
Ribosomal DNA silencing assays using the URA3 reporters were performed as previously described^26. Ribosomal DNA recombination frequencies were determined by plating W303AR cells^37 on YPD medium with low adenine/histidine and counting the fraction of half-red sectored colonies using Bio-Rad Quantity One software as previously described^35. At least 6000 cells were analyzed per experiment and all experiments were performed in triplicate.

SMILES: Oc1ccc(/C=C/c2cc(O)cc(O)c2)cc1 [Resveratrol, 3,5,4′-Trihydroxy-trans-stilbene]
- increase of average lifespan (S. cerevisiae; 10 μM): 70%
- maximum lifespan (in words) (S. cerevisiae; 10 μM): significantly increased maximum lifespan
- Average lifespan (S. cerevisiae; 10 μM compound, 2% glucose medium, wild type untreated 22.9): 36.8 generations
- Average lifespan, growth on resveratrol (S. cerevisiae; 10 μM): 35.7 generations
- Average lifespan, growth on resveratrol (S. cerevisiae; 100 μM): 29.4 generations
- Average lifespan, growth on resveratrol (S. cerevisiae; 500 μM): 29.3 generations
- Average lifespan, glucose-restricted+resveratrol (CR+R) (S. cerevisiae; glucose restriction): 39.9 generations
- Average lifespan, pnc1Δ+resveratrol (S. cerevisiae; pnc1Δ untreated 19.2): 33.1 generations
- Average lifespan, sir2Δ+resveratrol (S. cerevisiae; sir2Δ untreated 9.9): 10.0 generations
- Average lifespan, wild type+resveratrol (wt+R) (S. cerevisiae; wild type untreated 19.0): 37.8 generations
- level of Ac-K382 of p53 ([1]; 0.5 μM resveratrol, 4 hours pre-treatment, UV): marked decrease in the level of Ac-K382
- level of Ac-K382 of p53 ([1]; >50 μM resveratrol): the effect was reversed
- clinical course ([2]; high dose resveratrol 400 mg/kg/day): not different from controls
- peak and overall disease level ([2]; low dose resveratrol 200 mg/kg/day): slightly higher than controls
- Mean total EAE score ([2]; resveratrol 200 mg/kg/day IP): 94.00
- Mean EAE Score - Last 10 Days ([2]; resveratrol 200 mg/kg/day IP): 28.63
- Mean total EAE score ([2]; resveratrol 400 mg/kg/day IP): 73.00
- Mean EAE Score - Last 10 Days ([2]; resveratrol 400 mg/kg/day IP): 21.88
- increased lifespan (maximum) (D. melanogaster; Canton-S/dSir2^KG0087): up to 17%
- lifespan in flies lacking or severely decreased in dSir2 (D. melanogaster; dSir2^4.5/dSir2^5.26 or dSir2^17/dSir2^KG00871, 100 μM): failed to extend lifespan
- longevity in flies homozygous for a hypomorphic dSir2 allele (D. melanogaster; dSir2^KG0087/dSir2^KG0087): a small but statistically significant amount
- longevity on restricted diet (D. melanogaster; restricted diet): neither resveratrol nor fisetin further increased longevity
- lifespan extended (maximum) (D. melanogaster; wild type Canton-S and yw, males and females, normal diet): up to 29%
- degree of damage in dorsal, lateral and ventral white matter ([3]; resveratrol 200 mg/kg): slightly increased, albeit not significantly
- reduction of degree of damage in dorsal, lateral and ventral white matter ([3]; resveratrol 400 mg/kg, significant): approximately 40%
- reduction of the frequency of rDNA recombination (rDNA locus (RDN1); SIR2-dependent): ~60%
- effect on rDNA silencing (rDNA locus (RDN1); URA3 reporter, 5-FOA): only minor effects on rDNA silencing
- rDNA recombination in the presence of nicotinamide (rDNA locus (RDN1); with Sir2 inhibitor nicotinamide): decreased

— patent US20060276393A1, “Novel compositions for preventing and treating neurodegenerative and blood coagulation disorders” (Sirtris Pharmaceuticals, Inc., priority 2005, published 2006)
